Assay results as given in US7935702B2, “Substituted biaryl quinolin-4-ylamine analogues” (Neurogen Corporation, priority 2004, dated 2011).

Columns and labels:
VR = VR (Homo sapiens, UniProt Q8NER1); conditions: background; typical value; cited from earlier work
human capsaicin receptor = biological target: T1, human capsaicin receptor (Homo sapiens, UniProt Q8NER1); assay: Calcium mobilization assay, determination of antagonist activity (Example 6); type: cell-based; conditions: Table I; IC50 determined as described in Example 6; read-out: IC50
T1 construct: expressed in transfected cells
Outline: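 Clonal HEK293 cells stably expressing full-length human capsaicin receptor, loaded with Fluo-3 AM in KRH buffer pH 7.4. Compounds preincubated 0.5–6 h at room temperature in the dark, then challenged with capsaicin at its predetermined EC50; fluorescence by FLIPR/Fluoroskan; IC50 is concentration giving 50% decrease of capsaicin response.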

Sequence of VR (Q8NER1 whole entry): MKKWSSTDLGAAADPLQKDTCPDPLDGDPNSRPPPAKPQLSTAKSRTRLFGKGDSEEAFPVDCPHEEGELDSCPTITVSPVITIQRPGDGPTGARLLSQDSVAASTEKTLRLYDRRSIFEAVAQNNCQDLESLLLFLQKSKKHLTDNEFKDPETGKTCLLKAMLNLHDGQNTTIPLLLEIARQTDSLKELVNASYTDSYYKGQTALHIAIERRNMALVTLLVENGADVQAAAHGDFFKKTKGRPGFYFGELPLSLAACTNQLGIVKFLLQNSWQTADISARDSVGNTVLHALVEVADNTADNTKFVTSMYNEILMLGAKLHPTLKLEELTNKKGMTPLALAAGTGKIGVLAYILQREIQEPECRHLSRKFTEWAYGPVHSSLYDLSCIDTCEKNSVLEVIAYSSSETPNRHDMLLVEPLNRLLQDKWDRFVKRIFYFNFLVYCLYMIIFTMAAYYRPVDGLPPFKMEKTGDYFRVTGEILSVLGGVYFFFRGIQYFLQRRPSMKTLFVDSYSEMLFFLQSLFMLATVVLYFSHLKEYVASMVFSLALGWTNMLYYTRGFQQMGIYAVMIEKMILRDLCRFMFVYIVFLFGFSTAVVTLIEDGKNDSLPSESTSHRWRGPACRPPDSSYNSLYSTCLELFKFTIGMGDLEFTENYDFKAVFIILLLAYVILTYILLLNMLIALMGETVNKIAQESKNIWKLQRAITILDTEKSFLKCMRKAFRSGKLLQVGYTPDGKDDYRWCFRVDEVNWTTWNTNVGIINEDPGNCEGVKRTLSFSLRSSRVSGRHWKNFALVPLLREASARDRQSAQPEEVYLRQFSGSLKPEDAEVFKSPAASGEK
T1 sequence (Q8NER1 whole entry): as above

Cl.Cl.Cl.Cl.Cl.Cl.N.N.N.N.N.N.N.N.N.N.N.N.N.N.[O-2].[O-2].[Ru+3].[Ru+3].[Ru+4] [ruthenium red]
Ki (VR): ≥ 140 µM

N#Cc1ccc(-c2cnc3c(Nc4ccc(C(F)(F)F)cn4)ccnc3n2)c(C(F)(F)F)c1 [compound 36, 3-(trifluoromethyl)-4-(8-{[5-(trifluoromethyl)pyridin-2-yl]amino}pyrido[2,3-b]pyrazin-3-yl)benzonitrile]
IC50 (human capsaicin receptor): < 1 µM
